Data reported in patent US12286428B2 (BRISTOL-MYERS SQUIBB COMPANY, priority 2019, dated 2025).

Legend:
IRAK4 = molecular target: T1, IRAK4 (Homo sapiens, UniProt Q9NWZ3); test: IRAK4 Inhibition Assay; assay type: biochemical; conditions: ATP 500 μM; FL-IPTSPITTTYFFFKKK peptide […]; IRAK4 0.6 nM; 60 min room temperature; Caliper LABCHIP 3000
T1 sequence (Q9NWZ3 1-460): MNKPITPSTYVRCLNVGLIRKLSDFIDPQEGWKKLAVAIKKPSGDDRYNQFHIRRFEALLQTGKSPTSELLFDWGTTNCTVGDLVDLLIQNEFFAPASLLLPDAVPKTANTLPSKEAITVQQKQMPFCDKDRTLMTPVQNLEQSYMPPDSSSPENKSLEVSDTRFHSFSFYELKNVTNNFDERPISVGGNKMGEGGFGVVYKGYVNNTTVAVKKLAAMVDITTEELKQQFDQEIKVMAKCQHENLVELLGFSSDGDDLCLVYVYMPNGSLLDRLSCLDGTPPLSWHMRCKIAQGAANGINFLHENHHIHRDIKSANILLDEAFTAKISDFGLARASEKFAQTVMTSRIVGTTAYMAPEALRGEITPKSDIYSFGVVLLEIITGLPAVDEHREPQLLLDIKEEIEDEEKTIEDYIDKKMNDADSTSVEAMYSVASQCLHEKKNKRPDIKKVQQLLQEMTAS
Procedure: The assays were performed in U-bottom 384-well plates. […] The reaction was initiated by the combination of IRAK4 with substrates and test compounds. The reaction mixture was incubated at room temperature for 60 min. and terminated by adding 45 μL of 35 mM EDTA to each sample. The reaction mixture was analyzed on the Caliper LABCHIP® 3000 (Caliper, Hopkinton, MA) by electrophoretic separation of the fluorescent substrate and phosphorylated product. […] The final concentrations of reagents in the assays are ATP, 500 μM; FL-[…] peptide 1.5 μM; IRAK4, 0.6 nM; and DMSO, 1.6%.

[1] = test system: Human whole blood, IL-6 levels after TLR2 agonist lipoteichoic acid; test: IRAK4 Whole Blood Assay; assay type: cell-based; conditions: compounds 60 minutes at 37° C., lipoteichoic acid 10 μg/mL for 5 hours
Procedure: IRAK4 Whole Blood Assay Human whole blood containing the anti-coagulant ACD-A was plated in 384-well plate (25 μL/well) and incubated with compounds for 60 minutes at 37° C. in a 5% CO2 incubator. The blood was stimulated with a TLR2 agonist, 10 μg/mL final concentration of lipoteichoic acid (Invivogen, San Diego, CA) in 25 μL RPMI (Gibco) for 5 hours in a 5% CO2 incubator. At the end of the incubation, plates were centrifuged at 2300 rpm for 5 minutes. Supernatants were harvested and analyzed for IL-6 levels by Flow Cytometry beads assay (BD Biosciences, San Jose, CA).

CC[C@@H]1[C@H](F)C(=O)N[C@@H]1COC1=CC=CC2C=C(C(N)=O)n3nc(C)cc3C12 (stereo partly drawn) [Example 62, 10-(((2S,3S,4S)-3-ethyl-4-fluoro-5-oxopyrrolidin-2-yl)methoxy)-2-methyl-6a,10a-dihydropyrazolo[5,1-a]isoquinoline-5-carboxamide]
IC50 (IRAK4): 2.3 nM | IC50 [1]: 2510 nM
